The numbers were not newly measured in US20210059962A1, “STIMULATION OF T REGULATORY CELLS BY CANNABIDIOL AS A MEANS OF TREATING ARTHRITIS AND AUTOIMMUNITY” (priority 2019, published 2021), which cites them from elsewhere.

Molecules are shown by their SMILES.

Regarding `C=C(C)[C@@H]1CCC(C)=C[C@H]1c1c(O)cc(CCCCC)cc1O` [CBD, 2-[3-methyl-6-(1-methylethenyl)-2-cyclohexen-1-yl]-5-pentyl-1,3-benzenedi-of], in the data set with HUT-78 T-cells, the IL-10 production entry is “strongly inhibited”.
With `CCCCCc1cc(O)c2c(c1)OC(C)(C)[C@@H]1CCC(C)=C[C@@H]21` [THC, delta9 tetrahydrocannabinol], in the data set with NK cells (constitutive), the “constitutive production of IL-8” value is given as “decreased”, the “constitutive production of MIP-lalpha” value was “decreased”, the “constitutive production of MIP-lbeta” value is reported as “decreased” and the “constitutive production of RANTES” value is “decreased”. Besides, in the data set on NK cells (phorbol ester stimulated), the “phorbol ester stimulated production of GM-CSF” value is reported as “decreased”, the “phorbol ester stimulated production of IFN-gamma” value is on record as “decreased” and the “phorbol ester stimulated production of TNF-alpha” value is given as “decreased”. Besides, the MIP-lbeta production result with HTLV-1 positive B-cells is recorded as “inhibited”. In the data set with eosinophilic cells, the IL-8 production result is listed as “doubled” and the MIP-lbeta production entry is listed as “tripled”. For the same compound, the IL-10 production result in the data set with HUT-78 T-cells is “strongly inhibited”. In the data set on B-cells, the IL-8 production result is on record as “tripled”, the MIP-1alpha production result is “tripled” and the MIP-1beta production result is reported as “tripled”.
